According to patent publication US10772893B2, “2-(morpholin-4-yl)-1,7-naphthyridines” (BAYER PHARMA AKTIENGESELLSCHAFT, priority 2014, dated 2020):

Each compound was assayed on HeLa cells (assay: Proliferation assay, crystal violet staining). Conditions: Homo sapiens, 96 h, read-out: Inhibition of HeLa cell proliferation, HeLa cells, 4 days incubation.
For `Clc1cc(N2CCOCC2)nc2c(-c3cc[nH]n3)nccc12` [Example 62, 4-chloro-2-morpholin-4-yl-8-(1H-pyrazol-3-yl)-[1,7]naphthyridine], the IC50 was 164 nM. `C[C@@H]1COCCN1c1cc(OC(F)F)c2ccnc(-c3ccn[nH]3)c2n1` [Example 172, 4-(difluoromethoxy)-2-[(3R)-3-methylmorpholin-4-yl]-8-(1H-pyrazol-5-yl)-1,7-naphthyridine] gave an IC50 of 2100 nM. With `Cc1ncc(-c2cc(N3CCOC[C@H]3C)nc3c(-c4ccn[nH]4)nccc23)s1` [Example 78, 2-[(3R)-3-methylmorpholin-4-yl]-4-(2-methyl-1,3-thiazol-5-yl)-8-(1H-pyrazol-5-yl)-1,7-naphthyridine] the IC50 was 655 nM. For `C[C@@H]1COCCN1c1cc(N2CCOCC2)nc2c(-c3ccn[nH]3)nccc12` [Example 148, 4-[(3R)-3-methylmorpholin-4-yl]-2-(morpholin-4-yl)-8-(1H-pyrazol-5-yl)-1,7-naphthyridine], the IC50 was 805 nM. Compound `c1cc(-c2nccc3c(N4C[C@@H]5C[C@H]4CO5)cc(N4CCOCC4)nc23)[nH]n1` [Example 185, 2-(morpholin-4-yl)-4-[(1S,4S)-2-oxa-5-azabicyclo[2.2.1]hept-5-yl]-8-(1H-pyrazol-5-yl)-1,7-naphthyridine] has an IC50 greater than 3000 nM. Compound `Fc1ccc(-c2cc(N3CCOCC3)nc3c(-c4ccn[nH]4)nccc23)cc1` [Example 314, 4-(4-fluorophenyl)-2-(morpholin-4-yl)-8-(1H-pyrazol-5-yl)-1,7-naphthyridine] has an IC50 greater than 3000 nM. `C[C@@H]1COCCN1c1cc(-c2cnn(CCO)c2)c2ccnc(-c3ccn[nH]3)c2n1` [Example 260] gave an IC50 of 485 nM. With `CS(=O)(=O)C1(c2cc(N3CCOCC3)nc3c(-c4ccn[nH]4)nccc23)CC1` [Example 39, 4-(1-methanesulphonycyclopropyl)-2-(morpholin-4-yl)-8-(2H-pyrazol-3-yl)-[1,7]naphthyridine] the IC50 was 1050 nM. Compound `C[C@@H]1COCCN1c1cc(-c2ccc(F)cc2F)c2ccnc(-c3ccn[nH]3)c2n1` [Example 123, 4-(2,4-difluorophenyl)-2-[(3R)-3-methylmorpholin-4-yl]-8-(1H-pyrazol-5-yl)-1,7-naphthyridine] has an IC50 of 431 nM. `C[C@@H]1COCCN1c1cc(-c2c[nH]nc2C(F)(F)F)c2ccnc(-c3ccn[nH]3)c2n1` [Example 252, 2-[(3R)-3-methylmorpholin-4-yl]-8-(1H-pyrazol-5-yl)-4-[3-(trifluoromethyl)-1H-pyrazol-4-yl]-1,7-naphthyridine] showed an IC50 of 222 nM. In the case of `C[C@@H]1COCCN1c1cc(C2CCNCC2)c2ccnc(-c3ccn[nH]3)c2n1` [Example 251, 2-[(3R)-3-methylmorpholin-4-yl]-4-(piperidin-4-yl)-8-(1H-pyrazol-5-yl)-1,7-naphthyridine], the IC50 is reported as 800 nM. `C[C@@H]1COCCN1c1cc(-c2ccccc2)c2ccnc(-c3cc[nH]n3)c2n1` [Example 27, 2-((R)-3-methylmorpholin-4-yl)-4-phenyl-8-(2H-pyrazol-3-yl)-[1,7]naphthyridine] showed an IC50 of 355 nM. `C[C@@H]1COCCN1c1cc(-c2ccsc2Cl)c2ccnc(-c3ccn[nH]3)c2n1` [Example 236, 4-(2-chlorothiophen-3-yl)-2-[(3R)-3-methylmorpholin-4-yl]-8-(1H-pyrazol-5-yl)-1,7-naphthyridine] showed an IC50 of 792 nM. With `CCn1nccc1-c1cc(N2CCOC[C@H]2C)nc2c(-c3ccn[nH]3)nccc12` [Example 69, 4-(1-ethyl-1H-pyrazol-5-yl)-2-[(3R)-3-methylmorpholin-4-yl]-8-(1H-pyrazol-5-yl)-1,7-naphthyridine] the IC50 was 191 nM. `C[C@@H]1COCCN1c1cc(-c2cnc3n2CCC3)c2ccnc(-c3ccn[nH]3)c2n1` [Example 118, 4-(6,7-dihydro-5H-pyrrolo[1,2-a]imidazol-3-yl)-2-[(3R)-3-methylmorpholin-4-yl]-8-(1H-pyrazol-5-yl)-1,7-naphthyridine] showed an IC50 of 171 nM. `COc1nccc(-c2cc(N3CCOC[C@H]3C)nc3c(-c4ccn[nH]4)nccc23)c1Cl` [Example 106, 4-(3-chloro-2-methoxypyridin-4-yl)-2-[(3R)-3-methylmorpholin-4-yl]-8-(1H-pyrazol-5-yl)-1,7-naphthyridine] gave an IC50 of 434 nM. In the case of `C[C@@H]1COCCN1c1cc(-c2cc(C(F)(F)F)nn2C)c2ccnc(-c3ccn[nH]3)c2n1` [Example 98, 2-[(3R)-3-methylmorpholin-4-yl]-4-[1-methyl-3-(trifluoromethyl)-1H-pyrazol-5-yl]-8-(1H-pyrazol-5-yl)-1,7-naphthyridine], the IC50 is reported as 440 nM. Compound `CP(C)(=O)c1cc(N2CCOCC2)nc2c(-c3ccn[nH]3)nccc12` [Example 177, 4-(dimethylphosphoryl)-2-(morpholin-4-yl)-8-(1H-pyrazol-5-yl)-1,7-naphthyridine] has an IC50 greater than 3000 nM. For `CCS(=O)(=O)c1cc(N2CCOCC2)nc2c(-c3ccn[nH]3)nccc12` [Example 200, 4-(ethylsulfonyl)-2-(morpholin-4-yl)-8-(1H-pyrazol-5-yl)-1,7-naphthyridine], the IC50 was 1960 nM. For `C[C@@H]1COCCN1c1cc(-c2ccccc2F)c2ccnc(-c3ccn[nH]3)c2n1` [Example 77, 4-(2-fluorophenyl)-2-[(3R)-3-methylmorpholin-4-yl]-8-(1H-pyrazol-5-yl)-1,7-naphthyridine], the IC50 was 254 nM. With `Cc1cc(-c2cc(N3CCOC[C@H]3C)nc3c(-c4ccn[nH]4)nccc23)c(C)n1C` [Example 264, 2-[(3R)-3-methylmorpholin-4-yl]-8-(1H-pyrazol-5-yl)-4-(1,2,5-trimethyl-1H-pyrrol-3-yl)-1,7-naphthyridine] the IC50 was 198 nM. For `CC(C)n1ccc(-c2cc(N3CCOC[C@H]3C)nc3c(-c4ccn[nH]4)nccc23)n1` [Example 263, 2-[(3R)-3-methylmorpholin-4-yl]-4-[1-(propan-2-yl)-1H-pyrazol-3-yl]-8-(1H-pyrazol-5-yl)-1,7-naphthyridine], the IC50 was 332 nM. With `C[C@@H]1COCCN1c1cc(-c2cccnc2N)c2ccnc(-c3ccn[nH]3)c2n1` [Example 155, 3-{2-[(3R)-3-methylmorpholin-4-yl]-8-(1H-pyrazol-5-yl)-1,7-naphthyridin-4-yl}pyridin-2-amine] the IC50 was 959 nM. For `C[C@@H]1COCCN1c1cc(N(C)CC(C)(C)C)c2ccnc(-c3ccn[nH]3)c2n1` [Example 83, N-(2,2-dimethylpropyl)-N-methyl-2-[(3R)-3-methylmorpholin-4-yl]-8-(1H-pyrazol-5-yl)-1,7-naphthyridin-4-amine], the IC50 was 331 nM. `Cc1ncc(-c2cc(N3CCOC[C@H]3C)nc3c(-c4ccn[nH]4)nccc23)cc1F` [Example 233, 4-(5-fluoro-6-methylpyridin-3-yl)-2-[(3R)-3-methylmorpholin-4-yl]-8-(1H-pyrazol-5-yl)-1,7-naphthyridine] showed an IC50 of 180 nM. In the case of `CCP(=O)(CC)c1cc(N2CCOC[C@H]2C)nc2c(-c3ccn[nH]3)nccc12` [Example 143, 4-(diethylphosphoryl)-2-[(3R)-3-methylmorpholin-4-yl]-8-(1H-pyrazol-5-yl)-1,7-naphthyridine], the IC50 is reported as 543 nM. For `C[C@@H]1COCCN1c1cc(C2CCS(=O)(=O)CC2)c2ccnc(-c3ccn[nH]3)c2n1` [Example 204, 4-(1,1-dioxidotetrahydro-2H-thiopyran-4-yl)-2-[(3R)-3-methylmorpholin-4-yl]-8-(1H-pyrazol-5-yl)-1,7-naphthyridine], the IC50 was 568 nM. `Cc1cc(-c2cc(N3CCOCC3)nc3c(-c4ccn[nH]4)nccc23)n[nH]1` [Example 214, 4-(5-methyl-1H-pyrazol-3-yl)-2-(morpholin-4-yl)-8-(1H-pyrazol-5-yl)-1,7-naphthyridine] gave an IC50 greater than 3000 nM. For `C[C@@H]1COCCN1c1cc(-c2cc(F)ccc2N)c2ccnc(-c3ccn[nH]3)c2n1` [Example 75, 4-fluoro-2-[2-[(3R)-3-methylmorpholin-4-yl]-8-(1H-pyrazol-5-yl)-1,7-naphthyridin-4-yl]aniline], the IC50 was 271 nM. `C[C@@H]1COCCN1c1cc(-c2cccc(F)n2)c2ccnc(-c3ccn[nH]3)c2n1` [Example 152, 4-(6-fluoropyridin-2-yl)-2-[(3R)-3-methylmorpholin-4-yl]-8-(1H-pyrazol-5-yl)-1,7-naphthyridine] gave an IC50 of 671 nM. In the case of `COc1ccc(Sc2cc(N3CCOCC3)nc3c(-c4ccn[nH]4)nccc23)cc1` [Example 213, 4-[(4-methoxyphenyl)sulfanyl]-2-(morpholin-4-yl)-8-(1H-pyrazol-5-yl)-1,7-naphthyridine], the IC50 is reported as greater than 3000 nM. Work on `C[C@@H]1COCCN1c1cc(-c2ccc(F)nc2)c2ccnc(-c3ccn[nH]3)c2n1` [Example 94, 4-(6-fluoropyridin-3-yl)-2-[(3R)-3-methylmorpholin-4-yl]-8-(1H-pyrazol-5-yl)-1,7-naphthyridine] yielded an IC50 of 268 nM. Compound `Cc1nc(F)ccc1-c1cc(N2CCOC[C@H]2C)nc2c(-c3ccn[nH]3)nccc12` [Example 97, 4-(6-fluoro-2-methylpyridin-3-yl)-2-[(3R)-3-methylmorpholin-4-yl]-8-(1H-pyrazol-5-yl)-1,7-naphthyridine] has an IC50 of 252 nM. Work on `Oc1cccc(-c2cc(N3CCOCC3)nc3c(-c4ccn[nH]4)nccc23)c1` [Example 337, 3-[2-(morpholin-4-yl)-8-(1H-pyrazol-5-yl)-1,7-naphthyridin-4-yl]phenol] yielded an IC50 of 1710 nM. Work on `C[C@@H]1COCCN1c1cc(P(C)(C)=O)c2ccnc(-c3ccn[nH]3)c2n1` [Example 142, 4-(dimethylphosphoryl)-2-[(3R)-3-methylmorpholin-4-yl]-8-(1H-pyrazol-5-yl)-1,7-naphthyridine] yielded an IC50 of 1590 nM. `Cc1n[nH]cc1-c1cc(N2CCOC[C@H]2C)nc2c(-c3ccn[nH]3)nccc12` [Example 266, 2-[(3R)-3-methylmorpholin-4-yl]-4-(3-methyl-1H-pyrazol-4-yl)-8-(1H-pyrazol-5-yl)-1,7-naphthyridine] gave an IC50 of 154 nM.

These compounds were tested on NCI-H460 cells (assay: Proliferation assay, crystal violet staining). Conditions: Homo sapiens, NCI-H460, 96 h, read-out: Inhibition of NCI-H460 cell proliferation, NCI-H460 cells, 4 days incubation.
Procedure: (§1) After 24 hours, the cells of one plate (zero plate) were dyed with crystal violet (see below), whereas the medium of the other plates was replaced with fresh culture medium (200 μl) to which the test substances were added in various concentrations (0 μM, and also in the range of 0.001-10 μM; the final concentration of the solvent dimethyl sulphoxide was 0.1 or 0.5%). The cells were incubated for 4 days in the presence of the test substances. […] After washing the fixed cells three times with water, the plates were dried at room temperature. The cells were stained by adding 100 μl/measurement point of a 0.1% strength crystal violet solution (pH adjusted to pH 3 by adding acetic acid). After washing the cells three times with water, the plates were dried at room temperature. The dye was dissolved by adding 100 μl/measurement point of a 10% strength acetic acid solution. […] The percentage change in cell growth was calculated by normalizing the measured values to the absorbance values of the zero plate (=0%) and the absorbance of the untreated (0 W) cells (=100%). The IC50 values were determined by means of a four parameter fit.
`Clc1cc(N2CCOCC2)nc2c(-c3cc[nH]n3)nccc12` [Example 62, 4-chloro-2-morpholin-4-yl-8-(1H-pyrazol-3-yl)-[1,7]naphthyridine] gave an IC50 greater than 3000 nM. Work on `C[C@@H]1COCCN1c1cc(OCCCCN)c2ccnc(-c3ccn[nH]3)c2n1` [Example 57, 4-({2-[(3R)-3-methylmorpholin-4-yl]-8-(1H-pyrazol-5-yl)-1,7-naphthyridin-4-yl}oxy)butan-1-amine] yielded an IC50 of 374 nM. `CS(=O)(=O)C1(c2cc(N3CCOCC3)nc3c(-c4ccn[nH]4)nccc23)CC1` [Example 39, 4-(1-methanesulphonycyclopropyl)-2-(morpholin-4-yl)-8-(2H-pyrazol-3-yl)-[1,7]naphthyridine] showed an IC50 of 400 nM.

The compounds below were run on DU145 cells (assay: Proliferation assay, crystal violet staining). Conditions: Homo sapiens, DU-145, 96 h, read-out: Inhibition of DU145 cell proliferation, DU145 cells, 4 days incubation.
Procedure: as §1
For `C[C@@H]1COCCN1c1cc(OCCCCN)c2ccnc(-c3ccn[nH]3)c2n1` [Example 57, 4-({2-[(3R)-3-methylmorpholin-4-yl]-8-(1H-pyrazol-5-yl)-1,7-naphthyridin-4-yl}oxy)butan-1-amine], the IC50 was 1560 nM. `CS(=O)(=O)C1(c2cc(N3CCOCC3)nc3c(-c4ccn[nH]4)nccc23)CC1` [Example 39, 4-(1-methanesulphonycyclopropyl)-2-(morpholin-4-yl)-8-(2H-pyrazol-3-yl)-[1,7]naphthyridine] gave an IC50 of 837 nM.
